Consider two compounds from PubChem BioAssay AID1259407 (Chemical Carcinogenesis Research Information System (CCRIS), 2018).

The subject of this data set is CCRIS mutagenicity, Ames/micronucleus/aberration tests. Briefly: CCRIS mutagenicity studies.
The mark [1] stands for this setting: Test System: AMES SALMONELLA TYPHIMURIUM, Strain/Indicator: TA98, Metabolic Activation: NONE, Method: PREINCUBATION
[2] abbreviates: Test System: AMES SALMONELLA TYPHIMURIUM, Strain/Indicator: TA100, Metabolic Activation: NONE, Method: PREINCUBATION

Each structure is given as a SMILES string. Activity calls are given as the source filed them. The rule behind the calls is not given here.

As for `C[C@]12C/C(=C/O)C(=O)C[C@@H]1CC[C@@H]1[C@@H]2CC[C@@]2(C)[C@H]1CC[C@]2(C)O`, the mutagenic call (Test System: AMES SALMONELLA TYPHIMURIUM, Strain/Indicator: TA97, Metabolic Activation: HAMSTER, LIVER, S-9, AROCLOR 1254 (10 OR 30%), Method: PREINCUBATION) is “inactive; negative”; the mutagenic call (Test System: AMES SALMONELLA TYPHIMURIUM, Strain/Indicator: TA97, Metabolic Activation: NONE, Method: PREINCUBATION) is “inactive; negative”; the mutagenic call (Test System: AMES SALMONELLA TYPHIMURIUM, Strain/Indicator: TA97, Metabolic Activation: RAT, LIVER, S-9, AROCLOR 1254 (10 OR 30%), Method: PREINCUBATION) is “inactive; negative”; the mutagenic call (Test System: AMES SALMONELLA TYPHIMURIUM, Strain/Indicator: TA98, Metabolic Activation: HAMSTER, LIVER, S-9, AROCLOR 1254 (10 OR 30%), Method: PREINCUBATION) was “inactive; negative”; the mutagenic call under setting [1] is “inactive; negative”; the mutagenic call (Test System: AMES SALMONELLA TYPHIMURIUM, Strain/Indicator: TA98, Metabolic Activation: NONE, Method: STANDARD PLATE) was “inactive; negative”. The mutagenic call (Test System: AMES SALMONELLA TYPHIMURIUM, Strain/Indicator: TA98, Metabolic Activation: RAT LIVER S-9, AROCLOR 1254, 10%, Method: STANDARD PLATE) is “inactive; negative”; the mutagenic call (Test System: AMES SALMONELLA TYPHIMURIUM, Strain/Indicator: TA98, Metabolic Activation: RAT, LIVER, S-9, AROCLOR 1254 (10 OR 30%), Method: PREINCUBATION) is “inactive; negative”; the mutagenic call (Test System: AMES SALMONELLA TYPHIMURIUM, Strain/Indicator: TA100, Metabolic Activation: HAMSTER, LIVER, S-9, AROCLOR 1254 (10 OR 30%), Method: PREINCUBATION) is “inactive; negative”; the mutagenic call under setting [2] was “inactive; negative”; the mutagenic call (Test System: AMES SALMONELLA TYPHIMURIUM, Strain/Indicator: TA100, Metabolic Activation: NONE, Method: STANDARD PLATE) is “inactive; negative”; the mutagenic call (Test System: AMES SALMONELLA TYPHIMURIUM, Strain/Indicator: TA100, Metabolic Activation: RAT LIVER S-9, AROCLOR 1254, 10%, Method: STANDARD PLATE) is “inactive; negative”. In addition, the mutagenic call is, setting by setting: (Test System: AMES SALMONELLA TYPHIMURIUM, Strain/Indicator: TA100, Metabolic Activation: RAT, LIVER, S-9, AROCLOR 1254 (10 OR 30%), Method: PREINCUBATION) “inactive; negative”; (Test System: AMES SALMONELLA TYPHIMURIUM, Strain/Indicator: TA1535, Metabolic Activation: HAMSTER, LIVER, S-9, AROCLOR 1254 (10 OR 30%), Method: PREINCUBATION) “inactive; negative”; (Test System: AMES SALMONELLA TYPHIMURIUM, Strain/Indicator: TA1535, Metabolic Activation: NONE, Method: PREINCUBATION) “inactive; negative”; (Test System: AMES SALMONELLA TYPHIMURIUM, Strain/Indicator: TA1535, Metabolic Activation: NONE, Method: STANDARD PLATE) “inactive; negative”; (Test System: AMES SALMONELLA TYPHIMURIUM, Strain/Indicator: TA1535, Metabolic Activation: RAT LIVER S-9, AROCLOR 1254, 10%, Method: STANDARD PLATE) “inactive; negative”; (Test System: AMES SALMONELLA TYPHIMURIUM, Strain/Indicator: TA1535, Metabolic Activation: RAT, LIVER, S-9, AROCLOR 1254 (10 OR 30%), Method: PREINCUBATION) “inactive; negative”. For the same compound, the mutagenic call is, setting by setting: (Test System: AMES SALMONELLA TYPHIMURIUM, Strain/Indicator: TA1537, Metabolic Activation: NONE, Method: STANDARD PLATE) “inactive; negative”; (Test System: AMES SALMONELLA TYPHIMURIUM, Strain/Indicator: TA1537, Metabolic Activation: RAT LIVER S-9, AROCLOR 1254, 10%, Method: STANDARD PLATE) “inactive; negative”; (Test System: ESCHERICHIA COLI, Strain/Indicator: WP2 UVRA, Metabolic Activation: NONE, Method: STANDARD PLATE) “inactive; negative”; (Test System: ESCHERICHIA COLI, Strain/Indicator: WP2 UVRA, Metabolic Activation: RAT LIVER S-9, AROCLOR 1254, 10%, Method: STANDARD/PLATE) “inactive; negative”; (Test System: MOUSE LYMPHOMA, Strain/Indicator: L5178Y (TK+/TK-), Metabolic Activation: NONE, Method: SUSPENSION PLATE) “inactive; negative”; (Test System: MOUSE LYMPHOMA, Strain/Indicator: L5178Y (TK+/TK-), Metabolic Activation: RAT LIVER S-9, AROCLOR 1254, 3%, NADP, ISOCITRATE, Method: SUSPENSION/PLATE) “inactive; negative”.

On to `O=[N+]([O-])c1ccc(CNc2ncnc3nc[nH]c23)cc1`, for which the mutagenic call by setting is: (Test System: AMES SALMONELLA TYPHIMURIUM, Strain/Indicator: TA98(1,8-DNP), Metabolic Activation: NONE, Method: PREINCUBATION) “inactive; negative”; (Test System: AMES SALMONELLA TYPHIMURIUM, Strain/Indicator: TA98(1,8-DNP), Metabolic Activation: RAT, LIVER, S-9, PCB, Method: PREINCUBATION) “inactive; negative”; (Test System: AMES SALMONELLA TYPHIMURIUM, Strain/Indicator: TA98(NR), Metabolic Activation: NONE, Method: PREINCUBATION) “inactive; negative”; (Test System: AMES SALMONELLA TYPHIMURIUM, Strain/Indicator: TA98(NR), Metabolic Activation: RAT, LIVER, S-9, PCB, Method: PREINCUBATION) “inactive; negative”; under setting [1], “inactive; negative”; (Test System: AMES SALMONELLA TYPHIMURIUM, Strain/Indicator: TA98, Metabolic Activation: RAT, LIVER, S-9, PCB, Method: PREINCUBATION) “inactive; negative”. The mutagenic call reads like this: (Test System: AMES SALMONELLA TYPHIMURIUM, Strain/Indicator: TA100(1,8-DNP), Metabolic Activation: NONE, Method: PREINCUBATION) “inactive; negative”; (Test System: AMES SALMONELLA TYPHIMURIUM, Strain/Indicator: TA100(1,8-DNP), Metabolic Activation: RAT, LIVER, S-9, PCB, Method: PREINCUBATION) “inactive; negative”; (Test System: AMES SALMONELLA TYPHIMURIUM, Strain/Indicator: TA100(NR), Metabolic Activation: NONE, Method: PREINCUBATION) “inactive; negative”; (Test System: AMES SALMONELLA TYPHIMURIUM, Strain/Indicator: TA100(NR), Metabolic Activation: RAT, LIVER, S-9, PCB, Method: PREINCUBATION) “inactive; negative”; under setting [2], “inactive; negative”; (Test System: AMES SALMONELLA TYPHIMURIUM, Strain/Indicator: TA100, Metabolic Activation: RAT, LIVER, S-9, PCB, Method: PREINCUBATION) “inactive; negative”. For the same compound, the mutagenic call was “inactive; negative” (Test System: AMES SALMONELLA TYPHIMURIUM, Strain/Indicator: YG1020, Metabolic Activation: NONE, Method: PREINCUBATION); “inactive; negative” (Test System: AMES SALMONELLA TYPHIMURIUM, Strain/Indicator: YG1020, Metabolic Activation: RAT, LIVER, S-9, PCB, Method: PREINCUBATION); “inactive; negative” (Test System: AMES SALMONELLA TYPHIMURIUM, Strain/Indicator: YG1021, Metabolic Activation: NONE, Method: PREINCUBATION); “active; positive” (Test System: AMES SALMONELLA TYPHIMURIUM, Strain/Indicator: YG1021, Metabolic Activation: RAT, LIVER, S-9, PCB, Method: PREINCUBATION); “active; positive” (Test System: AMES SALMONELLA TYPHIMURIUM, Strain/Indicator: YG1024, Metabolic Activation: NONE, Method: PREINCUBATION); “inactive; negative” (Test System: AMES SALMONELLA TYPHIMURIUM, Strain/Indicator: YG1024, Metabolic Activation: RAT, LIVER, S-9, PCB, Method: PREINCUBATION). In addition, the mutagenic call (Test System: AMES SALMONELLA TYPHIMURIUM, Strain/Indicator: YG1025, Metabolic Activation: NONE, Method: PREINCUBATION) is “inactive; negative”; the mutagenic call (Test System: AMES SALMONELLA TYPHIMURIUM, Strain/Indicator: YG1025, Metabolic Activation: RAT, LIVER, S-9, PCB, Method: PREINCUBATION) is “inactive; negative”; the mutagenic call (Test System: AMES SALMONELLA TYPHIMURIUM, Strain/Indicator: YG1026, Metabolic Activation: NONE, Method: PREINCUBATION) was “inactive; negative”; the mutagenic call (Test System: AMES SALMONELLA TYPHIMURIUM, Strain/Indicator: YG1026, Metabolic Activation: RAT, LIVER, S-9, PCB, Method: PREINCUBATION) was “inactive; negative”; the mutagenic call (Test System: AMES SALMONELLA TYPHIMURIUM, Strain/Indicator: YG1029, Metabolic Activation: NONE, Method: PREINCUBATION) is “inactive; negative”; the mutagenic call (Test System: AMES SALMONELLA TYPHIMURIUM, Strain/Indicator: YG1029, Metabolic Activation: RAT, LIVER, S-9, PCB, Method: PREINCUBATION) is “inactive; negative”.
